In ChEMBL document CHEMBL1201862, “PubChem BioAssay data set” (2004):
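Tested at 5 concentrations; 48 h exposure; 96-well plates; endpoints linearly interpolated, else capped at highest concentration. GI50 marks 50% less growth.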 Activity calls are given as the source filed them. Cut-off read from the data, not from the text of the source: active = GI50 up to about 1.1 µM and inactive = higher.

Experiments:
Test in all cases: growth of human tumour cells (NCI), 48 h
[1] = tested on: SNB-75
[2] = tested on: UACC-257
[3] = tested on: COLO 205
[4] = tested on: MDA-MB-435
[5] = tested on: U-251
[6] = tested on: SN12C
[7] = tested on: A498
[8] = tested on: SK-OV-3
[9] = tested on: HCT-116
[10] = tested on: SK-MEL-5
[11] = tested on: CAKI-1
[12] = tested on: NCI-H522
[13] = tested on: BT-549
[14] = tested on: CCRF-CEM
[15] = tested on: NCI-H460
[16] = tested on: LOX IMVI
[17] = tested on: Malme-3M
[18] = tested on: EKVX
[19] = tested on: SW-620

Measured: GI50

C[C@]1(O)CC(=O)c2c(c(-c3ccc4cc5c(c(O)c4c3O)C(=O)C[C@@](C)(O)C5)c3cccc(O)c3c2O)C1
inactive: [1] 7.59 µM | [2] 7.36 µM | [3] 1.79 µM | [4] 7.05 µM | [5] 4.02 µM | [6] 6.22 µM | [7] 5.42 µM | [8] 10.3 µM | [9] 3.48 µM | [10] 3.66 µM | [11] 5.14 µM | [12] 4.88 µM | [13] 5.89 µM | [14] 6.71 µM | [15] 3.24 µM | [16] 6.37 µM | [17] 6.35 µM | [18] 11.2 µM | [19] 6 µM

CN(C)CCNCc1ccc2c(-c3ccccc3)nc3cc(Cl)c(Cl)cc3n12
inactive: [1] 7.46 µM | [2] 9.4 µM | [3] 6.92 µM | [4] 8.69 µM | [5] 9.08 µM | [6] 9.93 µM | [7] 15.2 µM | [8] 6.43 µM | [9] 7.74 µM | [10] 8.32 µM | [11] 8.51 µM | [12] 13.6 µM | [13] 16.4 µM | [14] 1.3 µM | [15] 9.68 µM | [16] 7.48 µM | [17] 17.5 µM | [18] 15.3 µM | [19] 8.83 µM

O=C(Cn1c(C(=O)c2ccccc2)nc2ccccc21)c1ccccc1
inactive: [1] > 100 µM | [2] > 100 µM | [3] > 100 µM | [4] 3.72 µM | [5] > 77.1 µM | [6] > 100 µM | [7] > 100 µM | [8] > 100 µM | [9] > 100 µM | [10] > 100 µM | [11] > 100 µM | [12] > 58.3 µM | [13] > 100 µM | [14] > 100 µM | [15] > 90.6 µM | [16] > 100 µM | [17] > 96.2 µM | [18] > 100 µM | [19] 4.85 µM

Cc1c/c(=N\c2ccc3c(c2)c(N)cc(C)[n+]3C)nc(N)n1C
inactive: [1] > 100 µM | [2] > 100 µM | [3] > 100 µM | [4] > 100 µM | [5] 88.3 µM | [6] 92.7 µM | [7] > 100 µM | [8] > 100 µM | [9] > 100 µM | [10] > 100 µM | [11] > 100 µM | [12] > 100 µM | [13] > 100 µM | [14] > 100 µM | [15] > 100 µM | [16] > 100 µM | [17] > 100 µM | [18] > 100 µM | [19] > 100 µM

NCCCCCCn1c(-c2ccc(Br)cc2)cs/c1=N\c1ccccc1
inactive: [1] 11.9 µM | [2] 15.2 µM | [3] 1.79 µM | [4] 10.8 µM | [5] 7.89 µM | [6] 13.7 µM | [7] 17.9 µM | [8] 17.2 µM | [9] 4.09 µM | [10] 10.1 µM | [11] 14.6 µM | [12] 10.5 µM | [13] 13.8 µM | [14] 6.9 µM | [15] 13.1 µM | [16] 2.53 µM | [17] 9.35 µM | [18] 13.8 µM | [19] 4.28 µM

O=C(Oc1ccccn1)c1cc2cc(CCl)ccc2oc1=O
inactive: [1] 24.8 µM | [2] 77.1 µM | [3] 51.2 µM | [4] 51.3 µM | [5] 18.5 µM | [6] 25.2 µM | [7] 70.6 µM | [8] > 100 µM | [9] 25.8 µM | [10] 51.8 µM | [11] 28.7 µM | [12] 15.2 µM | [13] 22.3 µM | [14] 30.4 µM | [15] 43.7 µM | [16] 33.3 µM | [17] 15.7 µM | [18] 36.8 µM | [19] 30.8 µM
